From patent US12653821B2 (SHANGHAI BOCIMED PHARMACEUTICAL CO., LTD., priority 2020, dated 2026)
In brackets after ≈: the same amount, converted by molar mass.

How the values were obtained:
[1] = In vitro dissolution simulation experiment, pH 7.4 phosphate buffer; type: physicochemical; settings: 37° C.
Description: The mixtures were shaken at 37° C.

physchem = settings: 37 °C, thermodynamic from solid
Description: The mixtures were shaken at 37° C. for 24 h and filtered through 0.45 μm aqueous-phase filter membranes. The filtrates were collected and the solubility was determined by high performance liquid chromatography. pH3, pH4, pH5 and pH6 represent acetate buffer solutions, and pH7, pH7.4, pH8 and pH9 represent phosphate buffer solutions.

[2] = humans; cited from earlier work
[3] = Pharmacokinetic experiment in rats (plasma cariprazine, LC-MS/MS); settings: intramuscular injection at 9 mg/kg
Description: In the whole experiment, the animals from the intramuscular injection group were given ad libitum access to food and water, and those from the oral intragastrical group were fasted overnight before administration and given access to food 4 h after administration.
Plasma sample collection: about 150 μL of blood was collected from the jugular vein (whole blood was centrifuged within 30 min to isolate plasma) and placed in a tube containing anticoagulant EDTA-K2, and after treatment, plasma was stored in a freezer at −70° C. before use.
Pretreatment of plasma sample: to 30 μL of plasma sample was added 200 μL of internal standard solution (40 ng/mL Glipizide acetonitrile solution); the mixture was vortexed for 1 min and centrifuged at 5800 rpm at 4° C. for 10 min; 100 μL of supernatant was transferred to a new plate and 1 μL of solution was taken for LC-MS/MS analysis.
Secondary mass spectrometry analysis was performed using an electrospray ion source (Turbo spray) in the multiple reaction monitoring (MRM) mode under the positive ion detection mode.

solubility at 24 h (physchem; pH 5, aqueous buffer)	solubility at 24 h (physchem; pH 3, aqueous buffer)	solubility at 24 h (physchem; pH 7, aqueous buffer)	solubility at 24 h (physchem; pH 9, aqueous buffer)	SMILES	Concentration, 1 (h) [1]	Concentration, 5 (h) [1]	Concentration, 7 (h) [1]	Concentration, 24 (h) [1]	cariprazine clearance [2]	length of release among the crystalline forms [3]
				CN(C)C(=O)NC1CCC(CCN2CCN(c3cccc(Cl)c3Cl)CC2)CC1 (centres unmarked) [Amorphous cariprazine embonate, cariprazine embonate]	11940 ng/mL	9580 ng/mL	7080 ng/mL	9900 ng/mL		
10800 µg/mL				CN(C)C(=O)N[C@H]1CC[C@H](CCN2CCN(c3cccc(Cl)c3Cl)CC2)CC1.Cl [Cariprazine hydrochloride]						
243 µg/mL (≈ 568 µM)	1360 µg/mL (≈ 3190 µM)	3.2 µg/mL (≈ 7.49 µM)	1.4 µg/mL (≈ 3.28 µM)	CN(C)C(=O)N[C@H]1CC[C@H](CCN2CCN(c3cccc(Cl)c3Cl)CC2)CC1 [Cariprazine, cariprazine]					3 to 9 days	
				CN(C)C(=O)NC1CCC(CCN2CCN(c3cccc(Cl)c3Cl)CC2)CC1 (centres unmarked) [Crystalline form A of cariprazine embonate]	1000 ng/mL	4100 ng/mL	3900 ng/mL	2500 ng/mL		best length of release
				CN(C)C(=O)NC1CCC(CCN2CCN(c3cccc(Cl)c3Cl)CC2)CC1 (centres unmarked) [Crystalline form B of cariprazine embonate]	5300 ng/mL	5200 ng/mL	2200 ng/mL	1700 ng/mL		
				CN(C)C(=O)NC1CCC(CCN2CCN(c3cccc(Cl)c3Cl)CC2)CC1 (centres unmarked) [Crystalline form G of cariprazine embonate]	1300 ng/mL	2280 ng/mL	1840 ng/mL	8050 ng/mL		
